{
  "source": "patent US6790603B2",
  "about": "“Compositions for the storage of platelets” (Bioenergy, Inc., priority 1999, dated 2004)",
  "key": {"platelets [1]": {"tested_on": "platelets", "experiment": "P-selectin expression in stored platelets, basal and after 10 nM thrombin challenge (flow cytometry)", "format": "cell-based", "method": "A basal measurement of spontaneous activation is obtained and the cells are then challenged with an agonist. The difference between cells challenged to activate minus the basal measurement is a measure of cell function. In the preferred embodiment, the agonist is 10 nM thrombin. P-selectin expression in response to a challenge of 10 nM thrombin is a highly accurate and quantitative method to assess platelet function using flow cytometry techniques. A monoclonal antibody to the platelet GPIIbIIIa receptor (Becton-Dickinson) is conjugated with green fluorescence, marking all platelets with a green detection. […] About 10,000 to 25,000 platelets are counted and measured for P-selectin expression and the % positive cells are defined as activated platelets that express P-selectin. Platelets that are activated are not capable of being activated a second time; that is, they are essentially nonfunctional. It was proposed years ago by Dawson (Transfusion 21:215-218. (1981)) that ribose at the concentration of 15 mM is beneficial to stored whole blood. It was assumed that ribose functioned by raising the energy levels of the cells, as discussed at length in U.S. Pat. No. 6,159,942. […] Platelet function was assessed by ATP secretion, platelet aggregation, P-selectin expression, platelet count and pH. Platelet function was measured every 24 hours. […]"}, "platelets [2]": {"tested_on": "platelets", "experiment": "ATP secretion in response to 10 nM thrombin (luciferin/luciferase assay)", "format": "cell-based", "from_the_text": "The platelet dense granules shown in FIG. 1 contain ATP which is released in response to platelet agonists such as thrombin, collagen or adenosine diphosphate (ADP). The release reaction of ATP from platelets serves as another method to monitor platelet function. There are many methods to analyze ATP. A convenient method is the well known luciferin/luciferase reaction (Sigma Chemical, St. Louis). This assay is derived from the light producing system of the firefly. The substrate luciferin, in the presence of ATP, is cleaved by the enzyme luciferase, accompanied by the emission of light. The emitted light is measured by a photomultiplier tube\nPlatelet suspensions containing about 350 units in 4 μl were mixed with 10 μl luciferin/luciferase reagent. An agonist is injected. As the platelet dense granules release ATP, the bioluminescent reaction occurs, which is measured by the photomultiplier tube. […] The rate of reaction is recorded and as platelet function decays, the rate decays. Total ATP was measured by lysing the cells with Triton and determining ATP content. The results as presented in Table III are expressed as intact rate of ATP secretion."}, "platelets [3]": {"tested_on": "platelets", "experiment": "Platelet aggregation on thrombin challenge (optical density / aggregometer)", "format": "cell-based", "method": "As a second measure of the effect of ribose on platelets, platelet aggregation was estimated. Platelet aggregation is a crucial function of platelet activity; platelets that cannot aggregate are essentially nonfunctional. Platelets were stored as above.\nThe optical density of the suspension was measured before and after thrombin challenge.\nPlatelet aggregation was measured with a platelet aggregometer (Chronolog, Inc., Irvine, Calif.). Platelet-rich, turbid suspensions were stirred in a cuvette and the transmittance of light through the sample relative to a platelet poor blank is recorded. When a aggregating agent is added, activated platelets with exposed fibrinogen receptors (GPIIbIIIa) are brought in close contact with each other in a medium containing calcium and fibrinogen and form increasingly large platelet aggregates, accompanied by a decrease in turbidity. The change in optical density was then translated by the instrument to percent aggregation. Simple stated, as platelets clump, more light passes through the cuvette."}, "bacteria": {"tested_on": "bacteria", "experiment": "Bacterial contamination of platelet storage solution (colony counts in Petri dishes)", "settings": "D-Ribose added to storage cocktail", "method": "Bacterial contamination was measured by colony counts in standard Petri dishes that had been inculated with the test solution. It is assumed that the millimolar glucose concentration in most platelet storage solutions contributes to the growth of bacteria. As noted above, Murphy (Table II) discloses a glucose-free solution for the storage of platelets. Elimination of reduction of glucose levels from millimolar to micromolar concentrations has a profound effect in reducing bacterial contamination, however, platelet function at five days, as measured by ATP secretion and P-selectin expression, was poor."}, "platelets [4]": {"tested_on": "platelets", "experiment": "Preservation of function in stored platelets (ATP secretion, aggregation, P-selectin expression, pH, platelet count)", "format": "cell-based", "method": "It is known that other pentoses may have similar effects as D-Ribose, either through intracellular conversion to ribose or a direct effect. Ribulose-5-phosphate, xylulose-5-phosphate and xylitol were tested for preservation of activity in stored platelets according to the methods of examples 1 to 6.\nRibulose-5-phosphate was purchased from Sigma Chemical (St. Louis) and added to the standard CPD platelet storage solution. The following parameters of function were tested: ATP secretion in response to 10 nM thrombin; platelet aggregation; P-selectin expression in response to thrombin challenge; pH change; and platelet count. Platelet concentrate bags were obtained from a transfusion center within hours of collection. Aliquots were sampled from the platelet bags and concentrations of ribulose-5-phosphate were added for a final concentration from 1.5 mM down to 150 pM. Controls without ribulose-5-phosphate were analyzed for comparison. Samples were analyzed every 24 hours for platelet function."}, "[5]": {"settings": "30 grams of ribose each day; cited from earlier work"}, "whole blood": {"tested_on": "whole blood", "settings": "15 mM ribose; cited from earlier work"}},
  "data": [
    {"smiles": "O=C[C@H](O)[C@H](O)[C@H](O)CO", "note": "[D-Ribose]", "values": [
      {"measurement": "Preservation of function (P-selectin expression test)", "setting": "platelets [1]; 150 pM D-Ribose, five days storage", "result": "ineffective"},
      {"measurement": "% positive (activated) cells", "setting": "platelets [1]; 153 nM D-Ribose, three days storage, basal", "result": 5, "unit": "%"},
      {"measurement": "Preservative effect on ATP secretion", "setting": "platelets [2]; 1.5 nM D-Ribose", "result": "no preservative effect"},
      {"measurement": "Rise in total ATP content of treated cells", "setting": "platelets [2]; 150 nM D-Ribose", "result": "more than 10%"},
      {"measurement": "Toxicity to platelets", "setting": "platelets [2]; 15 mM D-Ribose", "result": "toxic to platelets"},
      {"measurement": "Mean ATP secretion activity, % of baseline", "setting": "platelets [2]; optimal D-Ribose (150 nM), day 7", "result": "> 80", "unit": "%"},
      {"measurement": "Platelet samples with aggressive aggregation response", "setting": "platelets [3]; day 3, 10 nM thrombin", "result": "all five"},
      {"measurement": "Platelet samples responding (aggregation)", "setting": "platelets [3]; day five, thrombin", "result": "four out of five"},
      {"measurement": "Platelet samples able to aggregate", "setting": "platelets [3]; day seven, thrombin", "result": "three out of five"},
      {"measurement": "Aggregation on thrombin challenge", "setting": "platelets [3]; platelets stored in 150 pM D-Ribose", "result": "no aggregation"},
      {"measurement": "Aggregation on thrombin challenge", "setting": "platelets [3]; platelets stored in 150 nM D-Ribose", "result": "strong aggregation"},
      {"measurement": "Aggregation on thrombin challenge", "setting": "platelets [3]; platelets stored in 15 μM D-Ribose", "result": "very weak effect"},
      {"measurement": "Aggregation on thrombin challenge", "setting": "platelets [3]; platelets stored in 1.5 mM D-Ribose", "result": "no aggregation"},
      {"measurement": "Bacterial contamination", "setting": "bacteria", "result": "lower incidence of bacterial contamination"},
      {"measurement": "Platelet function compared with storage in presence of glucose", "setting": "platelets [4]; 150 nM D-Ribose, glucose eliminated or reduced to micromolar", "result": "similar"},
      {"measurement": "Tolerability of ingestion", "setting": "[5]", "result": "no ill effects"},
      {"measurement": "Effect on stored whole blood", "setting": "whole blood", "result": "beneficial"}
    ]},
    {"smiles": "O=C(CO)[C@H](O)[C@H](O)COP(=O)(O)O", "note": "[ribulose-5-phosphate, Ribulose-5-phosphate]", "values": [
      {"measurement": "Platelet function parameters versus controls", "setting": "platelets [4]; 1.5 mM down to 150 pM, analyzed every 24 hours", "result": "No difference from controls"}
    ]},
    {"smiles": "OC[C@@H](O)[C@H](O)[C@@H](O)CO", "note": "[xylitol]", "values": [
      {"measurement": "Preservation of platelet function", "setting": "platelets [4]; trends inconsistent", "result": "some benefit"}
    ]},
    {"smiles": "O=C(CO)[C@@H](O)[C@H](O)COP(=O)(O)O", "note": "[xylulose-5-phosphate, Xylulose-5-phosphate]", "values": [
      {"measurement": "Platelet aggregation", "setting": "platelets [3]; five days storage", "result": "weak"}
    ]}
  ]
}
